According to PubChem BioAssay (NCI):
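These data come from cells grown in 96-well plates and exposed to compound for 48 hours at five concentrations. TGI is the concentration that stops growth completely.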

Key:
Test in all cases: growth of human tumour cells (NCI), 48 h
[1] = tested on: T-47D breast
[2] = tested on: MDA-MB-435
[3] = tested on: U251 CNS
[4] = tested on: MALME-3M melanoma
[5] = tested on: PC-3 prostate
[6] = tested on: UACC-62 melanoma
[7] = tested on: HCT-116 colon
[8] = tested on: RXF 393 renal
[9] = tested on: NCI-H460 lung
[10] = tested on: K-562 leukemia
[11] = tested on: NCI-H226 lung
[12] = tested on: NCI-H23 lung
[13] = tested on: SF-268 CNS
[14] = tested on: HT29 colon
[15] = tested on: NCI-H522 lung
[16] = tested on: CCRF-CEM leukemia
[17] = tested on: A549 NSCLC
[18] = tested on: CAKI-1 renal
[19] = tested on: SN12C renal
[20] = tested on: OVCAR-8 ovarian
[21] = tested on: UACC-257 melanoma
[22] = tested on: MDA-MB-231 breast
[23] = tested on: SF-539 CNS
[24] = tested on: SK-MEL-5 melanoma
[25] = tested on: RPMI-8226 leukemia
[26] = tested on: HS 578T breast
[27] = tested on: SR leukemia
[28] = tested on: OVCAR-3 ovarian
[29] = tested on: MDA-N
[30] = tested on: OVCAR-4 ovarian
[31] = tested on: SK-MEL-28 melanoma
[32] = tested on: 786-0 renal
[33] = tested on: SNB-19 CNS
[34] = tested on: BT-549 breast
[35] = tested on: OVCAR-5 ovarian
[36] = tested on: HCT-15 colon
[37] = tested on: SNB-75 CNS
[38] = tested on: UO-31 renal
[39] = tested on: LOX IMVI melanoma
[40] = tested on: HL-60(TB) leukemia
[41] = tested on: EKVX NSCLC
[42] = tested on: TK-10 renal
[43] = tested on: SW-620 colon
[44] = tested on: A498 renal
[45] = tested on: NCI/ADR-RES ovarian
[46] = tested on: COLO 205 colon
[47] = tested on: ACHN renal
[48] = tested on: MCF7 breast
[49] = tested on: MOLT-4 leukemia
[50] = tested on: HCC-2998 colon
[51] = tested on: HOP-62 NSCLC
[52] = tested on: SF-295 CNS
[53] = tested on: HOP-92 NSCLC
[54] = tested on: SK-MEL-2 melanoma
[55] = tested on: KM12 colon
[56] = tested on: DU-145 prostate
[57] = tested on: SK-OV-3 ovarian
[58] = tested on: IGROV1 ovarian
[59] = tested on: M14 melanoma
[60] = tested on: DMS 114 small cell lung
[61] = tested on: LXFL 529 NSCLC
[62] = tested on: KM20L2 colon
[63] = tested on: SNB-78 CNS
[64] = tested on: DLD-1 colon

CCC(=O)c1cc(C(=O)C(=S)SC)cc(C(=O)C(=S)SC)c1
TGI [1]: > 100 µM
TGI [2]: > 100 µM
TGI [3]: > 100 µM
TGI [4]: > 100 µM
TGI [5]: > 100 µM
TGI [6]: > 100 µM
TGI [7]: > 100 µM
TGI [8]: > 100 µM
TGI [9]: > 100 µM
TGI [10]: > 100 µM
TGI [11]: > 100 µM
TGI [12]: > 100 µM
TGI [13]: > 100 µM
TGI [14]: > 100 µM
TGI [15]: > 100 µM
TGI [16]: > 24.6 µM
TGI [17]: > 100 µM
TGI [18]: > 100 µM
TGI [19]: > 100 µM
TGI [20]: > 100 µM
TGI [21]: > 100 µM
TGI [22]: > 100 µM
TGI [23]: > 100 µM
TGI [24]: > 100 µM
TGI [25]: > 100 µM
TGI [26]: > 100 µM
TGI [27]: > 100 µM
TGI [28]: > 100 µM
TGI [29]: > 100 µM
TGI [30]: > 100 µM
TGI [31]: > 100 µM
TGI [32]: > 100 µM
TGI [33]: > 100 µM
TGI [34]: > 100 µM
TGI [35]: > 100 µM
TGI [36]: > 100 µM
TGI [37]: > 100 µM
TGI [38]: > 100 µM
TGI [39]: > 100 µM
TGI [40]: > 72.6 µM
TGI [41]: > 100 µM
TGI [42]: > 100 µM
TGI [43]: > 100 µM
TGI [44]: > 100 µM
TGI [45]: > 100 µM
TGI [46]: > 100 µM
TGI [47]: > 100 µM
TGI [48]: > 100 µM
TGI [49]: > 63.4 µM
TGI [50]: > 100 µM
TGI [51]: > 100 µM
TGI [52]: > 100 µM
TGI [53]: > 100 µM
TGI [54]: > 100 µM
TGI [55]: > 100 µM
TGI [56]: > 100 µM
TGI [57]: > 100 µM
TGI [58]: > 100 µM
TGI [59]: > 100 µM

c1ccc(C2(c3ccccc3)SSC3(S2)C2CC4CC(C2)CC3C4)cc1 (configuration not stated)
TGI [3]: > 100 µM
TGI [4]: > 100 µM
TGI [6]: > 100 µM
TGI [7]: > 100 µM
TGI [8]: > 100 µM
TGI [9]: > 100 µM
TGI [10]: > 100 µM
TGI [12]: > 100 µM
TGI [13]: > 100 µM
TGI [60]: > 100 µM
TGI [14]: > 100 µM
TGI [16]: > 100 µM
TGI [17]: > 100 µM
TGI [18]: > 100 µM
TGI [19]: > 100 µM
TGI [20]: > 100 µM
TGI [21]: > 100 µM
TGI [23]: > 100 µM
TGI [24]: > 100 µM
TGI [61]: > 100 µM
TGI [25]: > 100 µM
TGI [27]: > 100 µM
TGI [62]: > 100 µM
TGI [30]: > 100 µM
TGI [31]: > 100 µM
TGI [63]: > 100 µM
TGI [32]: > 100 µM
TGI [33]: > 100 µM
TGI [35]: > 100 µM
TGI [36]: > 100 µM
TGI [37]: > 100 µM
TGI [38]: > 100 µM
TGI [39]: > 100 µM
TGI [40]: > 100 µM
TGI [41]: > 100 µM
TGI [42]: > 100 µM
TGI [43]: > 100 µM
TGI [44]: > 100 µM
TGI [47]: > 100 µM
TGI [64]: > 100 µM
TGI [49]: > 100 µM
TGI [50]: > 100 µM
TGI [52]: > 100 µM
TGI [53]: > 100 µM
TGI [54]: > 100 µM
TGI [55]: > 100 µM
TGI [57]: > 100 µM
TGI [58]: > 100 µM
TGI [59]: > 100 µM

CCOC(=O)/C=C(/C(=O)OCC)n1cc(C)c(=O)n(/C(=C/C(=O)OCC)C(=O)OCC)c1=O
TGI [1]: 7.86 µM
TGI [2]: 7.76 µM
TGI [3]: 19.3 µM
TGI [4]: 4.36 µM
TGI [5]: 12.3 µM
TGI [6]: 19.4 µM
TGI [7]: 4.88 µM
TGI [8]: 3.73 µM
TGI [9]: 37.1 µM
TGI [10]: 3.81 µM
TGI [11]: 12.6 µM
TGI [12]: 12.9 µM
TGI [13]: 32.8 µM
TGI [14]: 7.72 µM
TGI [15]: 1.88 µM
TGI [16]: 1.53 µM
TGI [17]: 31.8 µM
TGI [18]: 2.14 µM
TGI [19]: 8.58 µM
TGI [20]: 13 µM
TGI [21]: 10.9 µM
TGI [22]: 9.01 µM
TGI [23]: 23.5 µM
TGI [24]: 20.8 µM
TGI [25]: 4.52 µM
TGI [26]: 45.7 µM
TGI [27]: 5.72 µM
TGI [28]: 7.7 µM
TGI [29]: 13.7 µM
TGI [30]: > 22.3 µM
TGI [31]: 5.04 µM
TGI [32]: 2.56 µM
TGI [33]: 36.3 µM
TGI [34]: 15.9 µM
TGI [35]: 14.3 µM
TGI [36]: 4.01 µM
TGI [37]: 24 µM
TGI [38]: 10.8 µM
TGI [39]: 7.59 µM
TGI [40]: 0.674 µM
TGI [41]: 13.9 µM
TGI [42]: 4.06 µM
TGI [43]: 3.03 µM
TGI [44]: 36.8 µM
TGI [45]: 26.1 µM
TGI [46]: 2.87 µM
TGI [47]: 4.08 µM
TGI [48]: 5.5 µM
TGI [49]: 5.78 µM
TGI [50]: 22.1 µM
TGI [51]: 43.3 µM
TGI [52]: 33.5 µM
TGI [53]: 2.91 µM
TGI [54]: 33 µM
TGI [55]: 30.1 µM
TGI [56]: 26.6 µM
TGI [57]: 31.5 µM
TGI [58]: 17 µM
TGI [59]: 6.48 µM
